These compounds were tested on SW 954 (assay: cells). Settings: Homo sapiens, SW 954.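 Note: growth inhibition of SW954 human cancer cells, read out as cell viability.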
Format: functional, cell-based, Homo sapiens
Description: SANGER: Inhibition of human SW954 cell growth in a cell viability assay.

Row | SMILES | IC50 [nM]
1 | Cc1cn(-c2cc(NC(=O)c3ccc(C)c(Nc4nccc(-c5cccnc5)n4)c3)cc(C(F)(F)F)c2)cn1 [NILOTINIB] | > 2000

What follows are compounds tested on LB373-MEL-D (assay: cells). Settings: Homo sapiens, LB373-MEL-D.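 Note: growth inhibition of the cell line, read out in a cell viability assay.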
Format: functional, cell-based, Homo sapiens
Description: SANGER: Inhibition of human LB373-MEL-D cell growth in a cell viability assay.

Row | SMILES | IC50 [nM]
2 | Cc1cn(-c2cc(NC(=O)c3ccc(C)c(Nc4nccc(-c5cccnc5)n4)c3)cc(C(F)(F)F)c2)cn1 [NILOTINIB] | > 2000

The compounds below were run on LB2241-RCC (assay: cells). Settings: Homo sapiens, LB2241-RCC.
Format: functional, cell-based, Homo sapiens
Description: SANGER: Inhibition of human LB2241-RCC cell growth in a cell viability assay.

Row | SMILES | IC50 [nM]
3 | Cc1cn(-c2cc(NC(=O)c3ccc(C)c(Nc4nccc(-c5cccnc5)n4)c3)cc(C(F)(F)F)c2)cn1 [NILOTINIB] | 1020

These compounds were tested on KURAMOCHI (assay: cells). Settings: Homo sapiens, KURAMOCHI.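 Note: growth inhibition of KURAMOCHI cells, read out with a cell viability assay.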
Format: functional, cell-based, Homo sapiens
Description: SANGER: Inhibition of human KURAMOCHI cell growth in a cell viability assay.

Row | SMILES | IC50 [nM]
4 | Cc1cn(-c2cc(NC(=O)c3ccc(C)c(Nc4nccc(-c5cccnc5)n4)c3)cc(C(F)(F)F)c2)cn1 [NILOTINIB] | > 2000

These compounds were tested on KINGS-1 (assay: cells). Settings: Homo sapiens, KINGS-1.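 Note: cell viability assay measuring suppression of KINGS-1 cell growth.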
Format: functional, cell-based, Homo sapiens
Description: SANGER: Inhibition of human KINGS-1 cell growth in a cell viability assay.

Row | SMILES | IC50 [nM]
5 | Cc1cn(-c2cc(NC(=O)c3ccc(C)c(Nc4nccc(-c5cccnc5)n4)c3)cc(C(F)(F)F)c2)cn1 [NILOTINIB] | > 2000

Each compound was assayed on GI-1 (assay: cells). Settings: Homo sapiens, GI-1.
Format: functional, cell-based, Homo sapiens
Description: SANGER: Inhibition of human GI-1 cell growth in a cell viability assay.

Row | SMILES | IC50 [nM]
6 | Cc1cn(-c2cc(NC(=O)c3ccc(C)c(Nc4nccc(-c5cccnc5)n4)c3)cc(C(F)(F)F)c2)cn1 [NILOTINIB] | > 2000

Each compound was assayed on RKO (assay: cells). Settings: Homo sapiens, RKO.
Format: functional, cell-based, Homo sapiens
Description: SANGER: Inhibition of human RKO cell growth in a cell viability assay.

Row | SMILES | IC50 [nM]
7 | Cc1cn(-c2cc(NC(=O)c3ccc(C)c(Nc4nccc(-c5cccnc5)n4)c3)cc(C(F)(F)F)c2)cn1 [NILOTINIB] | > 2000

These compounds were tested on KG-1 (assay: cells). Settings: Homo sapiens, KG-1.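 Note: growth inhibition of KG-1 cells, read out by a cell viability assay.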
Format: functional, cell-based, Homo sapiens
Description: SANGER: Inhibition of human KG-1 cell growth in a cell viability assay.

Row | SMILES | IC50 [nM]
8 | Cc1cn(-c2cc(NC(=O)c3ccc(C)c(Nc4nccc(-c5cccnc5)n4)c3)cc(C(F)(F)F)c2)cn1 [NILOTINIB] | > 2000

These compounds were tested on MC116 (assay: cells). Settings: Homo sapiens, MC116.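 Note: growth inhibition of MC116 cells, read out with a cell viability assay.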
Format: functional, cell-based, Homo sapiens
Description: SANGER: Inhibition of human MC116 cell growth in a cell viability assay.

Row | SMILES | IC50 [nM]
9 | Cc1cn(-c2cc(NC(=O)c3ccc(C)c(Nc4nccc(-c5cccnc5)n4)c3)cc(C(F)(F)F)c2)cn1 [NILOTINIB] | > 2000

Each compound was assayed on MLMA (assay: cells). Settings: Homo sapiens, MLMA.
Format: functional, cell-based, Homo sapiens
Description: SANGER: Inhibition of human MLMA cell growth in a cell viability assay.

Row | SMILES | IC50 [nM]
10 | Cc1cn(-c2cc(NC(=O)c3ccc(C)c(Nc4nccc(-c5cccnc5)n4)c3)cc(C(F)(F)F)c2)cn1 [NILOTINIB] | > 2000

Each compound was assayed on NCI-H1770 (assay: cells). Settings: Homo sapiens, NCI-H1770.
Format: functional, cell-based, Homo sapiens
Description: SANGER: Inhibition of human NCI-H1770 cell growth in a cell viability assay.

Row | SMILES | IC50 [nM]
11 | Cc1cn(-c2cc(NC(=O)c3ccc(C)c(Nc4nccc(-c5cccnc5)n4)c3)cc(C(F)(F)F)c2)cn1 [NILOTINIB] | > 2000

Each compound was assayed on Mo (assay: cells). Settings: Homo sapiens, Mo.
Format: functional, cell-based, Homo sapiens
Description: SANGER: Inhibition of human Mo-T cell growth in a cell viability assay.

Row | SMILES | IC50 [nM]
12 | Cc1cn(-c2cc(NC(=O)c3ccc(C)c(Nc4nccc(-c5cccnc5)n4)c3)cc(C(F)(F)F)c2)cn1 [NILOTINIB] | > 2000

Each compound was assayed on MOLT-4 (assay: cells). Settings: Homo sapiens, MOLT-4.
Format: functional, cell-based, Homo sapiens
Description: SANGER: Inhibition of human MOLT-4 cell growth in a cell viability assay.

Row | SMILES | IC50 [nM]
13 | Cc1cn(-c2cc(NC(=O)c3ccc(C)c(Nc4nccc(-c5cccnc5)n4)c3)cc(C(F)(F)F)c2)cn1 [NILOTINIB] | > 2000

The compounds below were run on K562 (assay: cells). Settings: Homo sapiens, K562.
Format: functional, cell-based, Homo sapiens
Description: SANGER: Inhibition of human K-562 cell growth in a cell viability assay.

Row | SMILES | IC50 [nM]
14 | Cc1cn(-c2cc(NC(=O)c3ccc(C)c(Nc4nccc(-c5cccnc5)n4)c3)cc(C(F)(F)F)c2)cn1 [NILOTINIB] | > 2000

What follows are compounds tested on EW-16 (assay: cells). Settings: Homo sapiens, EW-16.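 Note: growth inhibition of human EW-16 cells, read out as cell viability.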
Format: functional, cell-based, Homo sapiens
Description: SANGER: Inhibition of human EW-16 cell growth in a cell viability assay.

Row | SMILES | IC50 [nM]
15 | Cc1cn(-c2cc(NC(=O)c3ccc(C)c(Nc4nccc(-c5cccnc5)n4)c3)cc(C(F)(F)F)c2)cn1 [NILOTINIB] | > 2000

Each compound was assayed on DJM-1 (assay: cells). Settings: Homo sapiens, DJM-1.
Format: functional, cell-based, Homo sapiens
Description: SANGER: Inhibition of human DJM-1 cell growth in a cell viability assay.

Row | SMILES | IC50 [nM]
16 | Cc1cn(-c2cc(NC(=O)c3ccc(C)c(Nc4nccc(-c5cccnc5)n4)c3)cc(C(F)(F)F)c2)cn1 [NILOTINIB] | > 2000

Each compound was assayed on NOS-1 (assay: cells). Settings: Homo sapiens, NOS-1.
Format: functional, cell-based, Homo sapiens
Description: SANGER: Inhibition of human NOS-1 cell growth in a cell viability assay.

Row | SMILES | IC50 [nM]
17 | Cc1cn(-c2cc(NC(=O)c3ccc(C)c(Nc4nccc(-c5cccnc5)n4)c3)cc(C(F)(F)F)c2)cn1 [NILOTINIB] | > 2000

Each compound was assayed on LU-139 (assay: cells). Settings: Homo sapiens, LU-139.
Format: functional, cell-based, Homo sapiens
Description: SANGER: Inhibition of human LU-139 cell growth in a cell viability assay.

Row | SMILES | IC50 [nM]
18 | Cc1cn(-c2cc(NC(=O)c3ccc(C)c(Nc4nccc(-c5cccnc5)n4)c3)cc(C(F)(F)F)c2)cn1 [NILOTINIB] | > 2000

What follows are compounds tested on RCC10RGB (assay: cells). Settings: Homo sapiens, RCC10RGB.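 Note: growth inhibition of human RCC10RGB cells, read out by a cell viability assay.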
Format: functional, cell-based, Homo sapiens
Description: SANGER: Inhibition of human RCC10RGB cell growth in a cell viability assay.

Row | SMILES | IC50 [nM]
19 | Cc1cn(-c2cc(NC(=O)c3ccc(C)c(Nc4nccc(-c5cccnc5)n4)c3)cc(C(F)(F)F)c2)cn1 [NILOTINIB] | > 2000

Each compound was assayed on KS-1 (assay: cells). Settings: Homo sapiens, KS-1.
Format: functional, cell-based, Homo sapiens
Description: SANGER: Inhibition of human KS-1 cell growth in a cell viability assay.

Row | SMILES | IC50 [nM]
20 | Cc1cn(-c2cc(NC(=O)c3ccc(C)c(Nc4nccc(-c5cccnc5)n4)c3)cc(C(F)(F)F)c2)cn1 [NILOTINIB] | > 2000

These compounds were tested on ES5 (assay: cells). Settings: Homo sapiens, ES5.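 Note: growth inhibition of human ES5 cells, read out by a cell viability assay.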
Format: functional, cell-based, Homo sapiens
Description: SANGER: Inhibition of human ES5 cell growth in a cell viability assay.

Row | SMILES | IC50 [nM]
21 | Cc1cn(-c2cc(NC(=O)c3ccc(C)c(Nc4nccc(-c5cccnc5)n4)c3)cc(C(F)(F)F)c2)cn1 [NILOTINIB] | > 2000

The compounds below were run on ES8 (assay: cells). Settings: Homo sapiens, ES8.
Format: functional, cell-based, Homo sapiens
Description: SANGER: Inhibition of human ES8 cell growth in a cell viability assay.

Row | SMILES | IC50 [nM]
22 | Cc1cn(-c2cc(NC(=O)c3ccc(C)c(Nc4nccc(-c5cccnc5)n4)c3)cc(C(F)(F)F)c2)cn1 [NILOTINIB] | > 2000

What follows are compounds tested on no-10 (assay: cells). Settings: Homo sapiens.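 Note: growth inhibition of no-10 cells, read out with a cell viability assay.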
Format: functional, cell-based, Homo sapiens
Description: SANGER: Inhibition of human no-10 cell growth in a cell viability assay.

Row | SMILES | IC50 [nM]
23 | Cc1cn(-c2cc(NC(=O)c3ccc(C)c(Nc4nccc(-c5cccnc5)n4)c3)cc(C(F)(F)F)c2)cn1 [NILOTINIB] | > 2000

The compounds below were run on TK-10 (assay: cells). Settings: Homo sapiens, TK-10.
Format: functional, cell-based, Homo sapiens
Description: SANGER: Inhibition of human TK10 cell growth in a cell viability assay.

Row | SMILES | IC50 [nM]
24 | Cc1cn(-c2cc(NC(=O)c3ccc(C)c(Nc4nccc(-c5cccnc5)n4)c3)cc(C(F)(F)F)c2)cn1 [NILOTINIB] | > 2000

The compounds below were run on NTERA-2-cl-D1 (assay: cells). Settings: Homo sapiens, NTERA-2-cl-D1.
Format: functional, cell-based, Homo sapiens
Description: SANGER: Inhibition of human NTERA-S-cl-D1 cell growth in a cell viability assay.

Row | SMILES | IC50 [nM]
25 | Cc1cn(-c2cc(NC(=O)c3ccc(C)c(Nc4nccc(-c5cccnc5)n4)c3)cc(C(F)(F)F)c2)cn1 [NILOTINIB] | > 2000

From ChEMBL document CHEMBL1201861, “Genomics of Drug Sensitity in Cancer screening data, Wellcome Trust Sanger Institute”
